According to ChEMBL document CHEMBL3885881, “DrugMatrix”:

Organism: Rattus norvegicus
Assay: DrugMatrix - Regimen: Daily Repeat
Assay type: toxicity, organism-based, Sprague-Dawley
Parameters: regimen Daily Repeat, gender Male, age 6-8 weeks
Conditions: in vivo, po, […], route oral GAVAGE, dose 2.3 mg/Kg, dose level Low, vehicle 100 % SALINE; for ABSOLUTE BASOPHIL / ABSOLUTE EOSINOPHIL / ABSOLUTE LYMPHOCYTE / ABSOLUTE MONOCYTE / ABSOLUTE SEGMENTED NEUTROPHIL / BASOPHIL / EOSINOPHIL / ERYTHROCYTE COUNT / HEMATOCRIT / HEMOGLOBIN / LEUKOCYTE COUNT / LYMPHOCYTE / MEAN CORPUSCULAR HEMOGLOBIN / MEAN CORPUSCULAR HEMOGLOBIN CONCENTRATION / MEAN CORPUSCULAR VOLUME / MONOCYTE / NEUTROPHIL / NUCLEATED RED BLOOD CELLS / PLATELET COUNT: tissue Blood; for ALANINE AMINOTRANSFERASE / ALBUMIN / ALKALINE PHOSPHATASE / ASPARTATE AMINOTRANSFERASE / BLOOD UREA NITROGEN / CARBON DIOXIDE / CHLORIDE / CHOLESTEROL / CREATINE PHOSPHOKINASE / CREATININE / GLUCOSE / LACTATE DEHYDROGENASE / LIPASE / PHOSPHORUS / POTASSIUM / SODIUM / TOTAL BILIRUBIN / TOTAL PROTEIN / URIC ACID: tissue Plasma

In the case of `CC(CN1c2ccccc2Sc2ccccc21)N(C)C` (stereo unspecified) [PROMETHAZINE], the “ABSOLUTE BASOPHIL” value (72 h, time 3 day) is reported as 0 CELLS/uL, the “ABSOLUTE EOSINOPHIL” value (72 h, time 3 day) is reported as 137 CELLS/uL and the “ABSOLUTE LYMPHOCYTE” value (72 h, time 3 day) is reported as 14557.33 CELLS/uL. For the same molecule, the “ABSOLUTE MONOCYTE” value (72 h, time 3 day) was 165.33 CELLS/uL, the “ABSOLUTE SEGMENTED NEUTROPHIL” value (72 h, time 3 day) was 1673.67 CELLS/uL and the BASOPHIL (72 h, time 3 day) was 0%. The EOSINOPHIL (72 h, time 3 day) was 1%, the “ERYTHROCYTE COUNT” value (72 h, time 3 day) was 5.52 x10E6/uL and the HEMATOCRIT (72 h, time 3 day) was 34.93%. For the same molecule, the HEMOGLOBIN (72 h, time 3 day) was 13.67 G/DL, the “LEUKOCYTE COUNT” value (72 h, time 3 day) was 16.53 x10E3/uL and the LYMPHOCYTE (72 h, time 3 day) was 88.33%. For the same molecule, the “MEAN CORPUSCULAR HEMOGLOBIN” value (72 h, time 3 day) was 24.8 pg, the “MEAN CORPUSCULAR HEMOGLOBIN CONCENTRATION” value (72 h, time 3 day) was 39.13 G/DL and the “MEAN CORPUSCULAR VOLUME” value (72 h, time 3 day) was 63.3 fL. For the same molecule, the MONOCYTE (72 h, time 3 day) was 1%, the NEUTROPHIL (72 h, time 3 day) was 9.67% and the “NUCLEATED RED BLOOD CELLS” value (72 h, time 3 day) was 0 /100WBC. The “PLATELET COUNT” value (72 h, time 3 day) was 1282.33 x10E3/uL, the “ALANINE AMINOTRANSFERASE” value (72 h, time 3 day) was 48 u/L and the ALBUMIN (72 h, time 3 day) was 4.07 G/DL. The “ALKALINE PHOSPHATASE” value (72 h, time 3 day) was 265 u/L, the “ASPARTATE AMINOTRANSFERASE” value (72 h, time 3 day) was 76 u/L and the “BLOOD UREA NITROGEN” value (72 h, time 3 day) was 13.67 mg/dL. For the same molecule, the “CARBON DIOXIDE” value (72 h, time 3 day) was 25.33 mmol/L, the CHLORIDE (72 h, time 3 day) was 102 MEQ/L and the CHOLESTEROL (72 h, time 3 day) was 62.67 mg/dL. For the same molecule, the “CREATINE PHOSPHOKINASE” value (72 h, time 3 day) was 306.33 u/L, the CREATININE (72 h, time 3 day) was 0.2 mg/dL and the GLUCOSE (72 h, time 3 day) was 164.67 mg/dL. For the same molecule, the “LACTATE DEHYDROGENASE” value (72 h, time 3 day) was 197.33 u/L, the LIPASE (72 h, time 3 day) was 10.33 u/L and the PHOSPHORUS (72 h, time 3 day) was 11.33 mg/dL. The POTASSIUM (72 h, time 3 day) was 6.26 MEQ/L, the SODIUM (72 h, time 3 day) was 142.7 MEQ/L and the “TOTAL BILIRUBIN” value (72 h, time 3 day) was 0.2 mg/dL. For the same molecule, the “TOTAL PROTEIN” value (72 h, time 3 day) was 5.87 G/DL, the “URIC ACID” value (72 h, time 3 day) was 1.63 mg/dL and the “ABSOLUTE BASOPHIL” value (120 h, time 5 day) was 0 CELLS/uL. The “ABSOLUTE EOSINOPHIL” value (120 h, time 5 day) was 47.67 CELLS/uL, the “ABSOLUTE LYMPHOCYTE” value (120 h, time 5 day) was 14175.67 CELLS/uL and the “ABSOLUTE MONOCYTE” value (120 h, time 5 day) was 210 CELLS/uL. For the same molecule, the “ABSOLUTE SEGMENTED NEUTROPHIL” value (120 h, time 5 day) was 1533.33 CELLS/uL, the BASOPHIL (120 h, time 5 day) was 0% and the EOSINOPHIL (120 h, time 5 day) was 0.33%. The “ERYTHROCYTE COUNT” value (120 h, time 5 day) was 5.54 x10E6/uL, the HEMATOCRIT (120 h, time 5 day) was 35.6% and the HEMOGLOBIN (120 h, time 5 day) was 13.8 G/DL. The “LEUKOCYTE COUNT” value (120 h, time 5 day) was 15.97 x10E3/uL, the LYMPHOCYTE (120 h, time 5 day) was 89% and the “MEAN CORPUSCULAR HEMOGLOBIN” value (120 h, time 5 day) was 24.93 pg. For the same molecule, the “MEAN CORPUSCULAR HEMOGLOBIN CONCENTRATION” value (120 h, time 5 day) was 38.77 G/DL, the “MEAN CORPUSCULAR VOLUME” value (120 h, time 5 day) was 64.27 fL and the MONOCYTE (120 h, time 5 day) was 1.33%. The NEUTROPHIL (120 h, time 5 day) was 9.33%, the “NUCLEATED RED BLOOD CELLS” value (120 h, time 5 day) was 0 /100WBC and the “PLATELET COUNT” value (120 h, time 5 day) was 1323 x10E3/uL. For the same molecule, the “ALANINE AMINOTRANSFERASE” value (120 h, time 5 day) was 48.67 u/L, the ALBUMIN (120 h, time 5 day) was 4.2 G/DL and the “ALKALINE PHOSPHATASE” value (120 h, time 5 day) was 312 u/L. The “ASPARTATE AMINOTRANSFERASE” value (120 h, time 5 day) was 76.33 u/L, the “BLOOD UREA NITROGEN” value (120 h, time 5 day) was 12.67 mg/dL and the “CARBON DIOXIDE” value (120 h, time 5 day) was 22 mmol/L. For the same molecule, the CHLORIDE (120 h, time 5 day) was 103.67 MEQ/L, the CHOLESTEROL (120 h, time 5 day) was 67.67 mg/dL and the “CREATINE PHOSPHOKINASE” value (120 h, time 5 day) was 212 u/L. The CREATININE (120 h, time 5 day) was 0.17 mg/dL, the GLUCOSE (120 h, time 5 day) was 187 mg/dL and the “LACTATE DEHYDROGENASE” value (120 h, time 5 day) was 113 u/L. For the same molecule, the LIPASE (120 h, time 5 day) was 9 u/L, the PHOSPHORUS (120 h, time 5 day) was 11.2 mg/dL and the POTASSIUM (120 h, time 5 day) was 6.01 MEQ/L. The SODIUM (120 h, time 5 day) was 144.6 MEQ/L, the “TOTAL BILIRUBIN” value (120 h, time 5 day) was 0.17 mg/dL and the “TOTAL PROTEIN” value (120 h, time 5 day) was 6.07 G/DL. For the same molecule, the “URIC ACID” value (120 h, time 5 day) was 2.13 mg/dL.
